{
  "source": "patent US12042486B2",
  "about": "“Use of bulleyaconitine A” (YUNNAN HAOPY PHARMACEUTICALS LTD, priority 2018, dated 2024)",
  "assay_type_in_all_cases": "in vivo, mouse",
  "key": {"[1]": {"system": "acute itch caused by histamine", "test": "Acute itch model: scratching of mice after subcutaneous histamine, BLA given intragastrically 2 h before", "details": "for Number of scratching in mouse in the histamine group (single animals): between 2 and 2.5 hours after BLA (30 min), individual mouse; for Number of scratching in mouse in the histamine group, average number: 30 min, solvent group 36.56667", "source_text": "(§1) Researches over the years have shown that itch is mainly transmitted by two types of C fibers, with one sensitive to histamine and the other to chloroquine. Therefore, the scratching response of animals caused by subcutaneous injection of histamine or chloroquine is internationally recognized as an acute itch model. The present disclosure is aimed to investigate whether the intragastric administration of bulleyaconitine A (BLA) can inhibit acute itch caused by histamine or chloroquine.\n(§2) 6-8 weeks old C57 mice were employed in experiments (body weight of 17-20 grams, from the Experimental Animal Center of Sun Yat-Sen University). The mice were randomly divided into four groups, namely solvent+histamine control group, BLA+histamine group, solvent+chloroquine control group and BLA+chloroquine group. For the convenience of subcutaneous injection and observation of scratching, the hair around the neck and back (at least 3×5 cm) was shaved off under temporary anesthesia with isoflurane three days before the start of the experiments. The control group was given a subcutaneous injection of 50 μl of histamine (2 mg/ml) or chloroquine (4 mg/ml), with an intragastric administration of a solvent (carboxymethyl cellulose) 2 hours before the injection. The experiment group was given an intragastric administration of BLA with different dosages (0.125, 0.25 and 0.5 mg/kg), 2 hours before the injection of histamine or chloroquine. The BLA was administered 2 hours in advance, because it needs 1.5-2 hours for BLA to take effect from its intragastric administration. The number of scratching in each group was counted within 30 minutes for comparison, because the acute scratching response induced by histamine or chloroquine subsided 30 minutes later after drug injection as shown by previous studies.\n(§3) During the recording in experiment, the mice were placed in separate, transparent acrylic boxes having a size of 15×15×20 cm each, and with two small openings at top of each box to allow air to circulate. The scratching behavior was recorded as video by a camera, which was placed above mouse because their behaviors of scratching their back or neck mostly happen in an angle of view directly opposite to their upper back.\n(§4) In order to minimize attentional shift and eliminate tension as much as possible, each transparent box was supplied with a small amount of padding, to absorb any urine excreted from the mouse. The ambient temperature was kept at 23-27° C., and additionally all the staff were asked to leave during the recording to keep the experimental environment quiet. The experiment was carried out between 9:00-14:00 h. To acclimatize the animals to the test environment, the mouse had been acclimatized in the transparent box for one hour at 9:00 and 13:00 every day since two days before the formal experiment. Because the scratching of a mice often happens quickly, the action from mice starting to scratch its neck or back by its hind paw until the hind paw hitting on the ground or being put into its mouth to clean the dander is taken as one scratching behavior.\n(§5) Statistical methods: the number of scratching was represented by average value±standard deviation, and Turkey test was employed to compare the difference between different groups.\n(§6) Solution preparation and application method: 0.05 g of BLA was weighed and dissolved in 1000 ml of 0.5% sodium carboxymethyl cellulose solution. Histamine and chloroquine were prepared with 0.9% sterile saline, to make a dosage of histamine 100 μg and chloroquine 200 μg. To minimize the skin injure at the injection site, a thinner needle in 0.3 ml for insulin was connected to the needle port of the microinjector to reduce injure to mouse."}, "[2]": {"system": "acute itch caused by chloroquine", "test": "Acute itch model: scratching of mice after subcutaneous chloroquine, BLA given intragastrically 2 h before", "details": "for Number of scratching in mouse in the chloroquine group (single animals): between 2 and 2.5 hours after BLA (30 min), individual mouse; for Number of scratching in mouse in the chloroquine group, average number: 30 min, solvent group 92.565556", "source_text": "as §1, §2, §3, §4, §5, §6"}, "[3]": {"test": "Observation of drowsiness or other side effects in mice of the itch experiments", "source_text": "as §2\nBLA inhibited the itch caused by histamine or chloroquine in a manner of depending on the dosage of intragastric administration."}, "[4]": {"details": "0.5 mg/kg intragastric, P<0.001 vs solvent group"}, "[5]": {"details": "oral administration, 0.125-0.5 mg/kg"}},
  "note": "Where “and” joins values, the source holds several entries; their conditions need not be identical. Identical values can stand only once.",
  "data": [
    {"smiles": "CCN1C[C@]2(COC)CC[C@H](OC)[C@]34C1[C@H]([C@H](OC)[C@H]23)[C@@]1(OC(C)=O)C[C@H](OC)[C@]2(O)C[C@@H]4[C@@H]1[C@H]2OC(=O)c1ccc(OC)cc1", "note": "[BLA, Bulleyaconitine A]", "values": [
      {"measurement": "Number of scratching in mouse in the histamine group (single animals)", "setting": "[1]; 0.125 mg/kg BLA intragastric + histamine s.c.", "result": "22 and 33 and 0 and 18 (2×) and 47 and 43 (3×) and 77 and 60 and 46 (2×) and 42 and 16 and 21 and 87 and 26 and 17 and 38 (3×) and 37 and 3 and 84 and 35 and 64 and 52 and 6 and 25"},
      {"measurement": "Number of scratching in mouse in the histamine group, average number", "setting": "[1]; 0.125 mg/kg BLA intragastric + histamine, n=30", "result": 37.5},
      {"measurement": "Inhibition of itching caused by histamine (in words)", "setting": "[1]; 0.125 mg/kg intragastric", "result": "did not inhibit"},
      {"measurement": "Number of scratching in mouse in the histamine group, average number", "setting": "[1]; 0.25 mg/kg BLA intragastric + histamine, n=38", "result": 24.76},
      {"measurement": "Inhibition of scratching response caused by histamine (in words)", "setting": "[1]; 0.25 mg/kg intragastric, P<0.05 vs solvent group", "result": "significantly inhibited"},
      {"measurement": "Number of scratching in mouse in the histamine group (single animals)", "setting": "[1]; 0.5 mg/kg BLA intragastric + histamine s.c.", "result": "0 (12×) and 50 and 38 and 48 and 26"},
      {"measurement": "Number of scratching in mouse in the histamine group, average number", "setting": "[1]; 0.5 mg/kg BLA intragastric + histamine, n=16", "result": 10.1325},
      {"measurement": "Inhibition of acute itch caused by histamine (in words)", "setting": "[1]; [4]", "result": "completely inhibited"},
      {"measurement": "Dose dependence of inhibition of itching caused by histamine", "setting": "[1]; [5]", "result": "in a dosage-dependent manner"},
      {"measurement": "Number of scratching in mouse in the chloroquine group (single animals)", "setting": "[2]; 0.125 mg/kg BLA intragastric + chloroquine s.c.", "result": "29 and 70 and 90 and 31 and 115 and 185 and 89 and 40 and 130 and 23 and 197 and 24 (2×) and 53 and 10 and 182 and 27 and 26 and 138 and 48 and 41 and 62 and 34 and 93 and 45"},
      {"measurement": "Number of scratching in mouse in the chloroquine group, average number", "setting": "[2]; 0.125 mg/kg BLA intragastric + chloroquine, n=25", "result": 72.24},
      {"measurement": "Inhibition of acute itch caused by chloroquine (in words)", "setting": "[2]; 0.125 mg/kg intragastric, P>0.05, not statistically significant", "result": "only had slightly inhibitory effect"},
      {"measurement": "Number of scratching in mouse in the chloroquine group (single animals)", "setting": "[2]; 0.25 mg/kg BLA intragastric + chloroquine s.c.", "result": "43 and 75 (2×) and 136 and 0 (3×) and 33 and 101 and 25 (2×) and 38 and 26 and 30 and 78 (3×) and 34 and 37 and 10 and 64 and 118 and 53 and 17 and 23 and 143 and 80 and 47"},
      {"measurement": "Number of scratching in mouse in the chloroquine group, average number", "setting": "[2]; 0.25 mg/kg BLA intragastric + chloroquine, n=28", "result": 52.39},
      {"measurement": "Inhibition of scratching response caused by chloroquine (in words)", "setting": "[2]; 0.25 mg/kg intragastric, P<0.01 vs solvent group", "result": "significantly inhibited"},
      {"measurement": "Number of scratching in mouse in the chloroquine group (single animals)", "setting": "[2]; 0.5 mg/kg BLA intragastric + chloroquine s.c.", "result": "0 (13×) and 27 and 20 and 23"},
      {"measurement": "Number of scratching in mouse in the chloroquine group, average number", "setting": "[2]; 0.5 mg/kg BLA intragastric + chloroquine, n=16", "result": 4.3875},
      {"measurement": "Inhibition of acute itch caused by chloroquine (in words)", "setting": "[2]; [4]", "result": "completely inhibited"},
      {"measurement": "Dose dependence of inhibition of itching caused by chloroquine", "setting": "[2]; [5]", "result": "in a dosage-dependent manner"},
      {"measurement": "Drowsiness or other side effects in mouse", "setting": "[3]; 0.125 mg/kg intragastric", "result": "no drowsiness or other side effects in mouse was observed"},
      {"measurement": "Drowsiness or other side effects in mouse", "setting": "[3]; 0.25 mg/kg intragastric", "result": "no drowsiness or other side effects in mouse was observed"},
      {"measurement": "Drowsiness in mouse", "setting": "[3]; 0.5 mg/kg intragastric", "result": "drowsiness in mouse was observed"}
    ]}
  ]
}
